Assay results from US11191760B2, “Compositions and methods for treating Helicobacter pylori infection” (priority 2016, dated 2021).

Columns and labels:
Format in all cases: cell-based
AGS cells [1] = experiment: VacA-disrupted autophagy in AGS cells (LC3-II immunoblot, LC3 puncta); conditions: for VacA-disrupted autophagy (LC3-II levels): FIG. 13
Experimental: AGS cells incubated with VacA+ or VacA− CCMS for 3 to 4 hrs were then treated with 20 μM ML-SA1 or DMSO (vehicle) for an additional 3 hrs. Cell lysates were prepared and probed for the autophagy marker LC3-II and actin (loading control) (4A, left). Densitometry analysis (LC3-II/actin ratio) of 6 experiments is included on the right. […] Cells treated as indicated above were fixed and stained for LC3-11 (marker of autophagosomes) and cell nuclei (using DAPI). […] One representative image of 7 experiments is shown.
To validate the results obtained with ML-SA1 and confirm that VacA impairs TRPML1 activity, a new recently described TRPML1 agonist, MK6-83, was also evaluated in its ability to restore VacA-disrupted autophagy. To this end, AGS cells incubated with VacA+ or VacA− CCMS for 4 hours were treated with 20 μM ML-SA1, 10 μM MK6-83 or DMSO (vehicle) for additional 3 hour period. Cell lysates were prepared and assessed for LC3-II and actin as loading control. […] This example provides evidence that various TRPML1 agonists of different structures work in the same way by targeting TRPML1 to restore VacA-disrupted autophagy.

AGS cells [2] = experiment: VacA-induced vacuolation in AGS cells (Lamp1 staining); conditions: 20 μM for 3 hrs after 3 to 4 hrs VacA+ CCMS
Experimental: AGS cells were incubated with CCMS from wild-type (VacA+) or mutant (VacA−) 60190 H. pylori for 3 to 4 hrs to induce vacuole formation. Cells were then treated with 20 μM of the TRPML1 agonist ML-SA1 or DMSO (vehicle) for an additional 3 hrs period prior to fixation and staining for Lamp1 and cell nuclei. […] Lamp1 staining in these TRPML1 treated cells was indistinguishable from VacA− CCMS control AGS cells. The experiment was repeated 8 times with similar results. One representative experiment is shown.
ML-SA1-treated VacA^+ AGS cells were indistinguishable from VacA^− control cells, displaying Lamp1 staining that resembled normal lysosome size and distribution.

AGS cells [3] = experiment: VacA-induced missorting of cathepsin D in AGS cells (Lamp1/cathepsin D staining); conditions: 20 μM for 4 hrs after overnight VacA+ CCMS
Experimental: VacA− DMSO treated (control) cells display lysosomes filled with cathepsin D (same puncta obtained by Lamp1 and cathepsin D staining in the top 2 panels) whereas the big vacuoles generated by VacA+ incubation lack cathepsin D (middle panels). […] A higher magnification of a merged Lamp1/cathepsin D image is included on the right. One representative image of 6 experiments is shown.
(§1) ML-SA1 administration to VacA^+ treated AGS cells recovered the delivery of cathepsin D to intracellular vacuoles (FIG. 5) and increased cathepsin D cellular levels as detected by immunoblotting (FIG. 6). Importantly, ML-SA1-treated cells also regained the ability to degrade the chromogenic substrate, DQ-BSA (FIG. 7). Altogether, these findings indicate that activation of the TRPML1 channel reverts formation of the VacA-induced non-degradative vacuole.

AGS cells [4] = experiment: Cathepsin D cellular levels in VacA+ CCMS treated AGS cells (Western blotting); conditions: 20 μM for 4 hrs after overnight VacA+ CCMS
Experimental: AGS cells were incubated overnight with VacA− or VacA+ CCMS and treated with 20 μM ML-SA1 or DMSO (vehicle) for an additional 4 hrs period prior to lysate preparation. Cathepsin D and actin (loading control) levels were analyzed by Western blotting. […] One representative blot of 5 is shown (top panel). Densitometry analysis of cathepsin D levels (cathepsin D/actin ratio), normalized to the VacA− treated control is shown (bottom panel).
as §1

AGS cells [5] = experiment: Lysosomal degradative function in VacA+ CCMS treated AGS cells (red DQ-BSA); conditions: 20 μM for 3 hrs after overnight VacA+ CCMS, then red DQ-BSA 4 hrs
Experimental: AGS cells were incubated overnight with VacA− or VacA+ CCMS and treated with 20 μM ML-SA1 or DMSO (vehicle) for an additional 3 hrs period prior to being loaded with red DQ-BSA for an additional 4 hrs. Cells were then fixed and stained with DAPI. Red DQ-BSA is a chromogenic substrate taken up by the cells by endocytosis. The dye generates a fluorescence signal once hydrolyzed in lysosomes. VacA− treated control cells efficiently degrade the substrate resulting in the detection of the fluorescence signal (lysosomal-like white puncta in 7A) whereas in VacA+ treated cells minimal to none fluorescence is detected (7B). […] The experiment was repeated 4 times with similar results.
as §1

[6] = tested on: wild-type (VacA+) H. pylori; experiment: Intracellular bacteria survival in infected AGS cells (gentamicin, CFU)
AGS cells [7] = experiment: Vacuolation and cathepsin D missorting in AGS cells infected with wild-type (VacA+) H. pylori; conditions: treated for 4 hrs
Experimental: A merged image is shown on the left, and the individual stainings corresponding to a higher magnification of the selected areas are included on the right. In the AGS cells infected with VacA− H. pylori mutant, the cathepsin D-filled lysosomes efficiently killed the intracellular bacteria (visualized by DAPI).
To this end, AGS cells infected with wild-type (VacA^+) or VacA^− mutant H. pylori were incubated with the cell-impermeant antibiotic gentamicin to kill extracellular bacteria. Intracellular bacteria were then retrieved and quantified. […] The big vacuoles, depleted of cathepsin D and filled with bacteria observed in the VacA^+ H. pylori infected cells (FIG. 9, inset), were reduced in size and filled with the hydrolytic enzyme after ML-SA1 treatment (FIG. 9, inset). Thus, the reduction in intracellular survival was a consequence of the destruction of the […] H. pylori protective niche (FIG. 8,9).

human gastric organoids = experiment: VacA-induced large vacuoles and disrupted autophagy in human gastric organoids; conditions: 16 h VacA+ culture supernatant
Experimental: (11A) 3-dimensional human gastric organoids were treated 16 h with VacA− or VacA+ culture supernatant, then 5 h with vehicle (DMSO) or ML-SA1. One representative Western blot is shown and the corresponding quantification of the rescue in LC3-II by treatment with ML-SA1 from organoids derived from 5 different patients. (B) Representative confocal images taken from human gastric organoid monolayers treated for 16 h with VacA− or VacA+ culture supernatant, then 3 h with vehicle (DMSO) or ML-SA1. VacA-induced large vacuoles were visualized by Lamp1, autophagy by LC3 and nuclei by DAPI. Note large Lamp1 positive rings and LC3 puncta (arrows) in VacA+ DMSO that were rescued in VacA+ ML-SA1.
Organoids are 3-dimensional primary cell cultures that recapitulate the normal stomach physiology. These cultures are derived from stem cells located in the gastric gland that differentiate into complex structures containing the different cell types found in the stomach epithelium. To ensure findings from the cancerous gastric cell line (AGS) held true in a physiological model, organoids were derived from multiple different patients and treated with VacA.

Row | SMILES | VacA-disrupted autophagy (LC3-II levels) (AGS cells [1]; 10 μM for 3 hour after 4 hours VacA+ CCMS, AGS cells) | VacA-induced vacuolation (Lamp1 staining) (AGS cells [2]) | VacA-disrupted autophagy (LC3-II levels) (AGS cells [1]; 20 μM for 3 hour after 4 hours VacA+ CCMS, AGS cells) | autophagy marker LC3-II (LC3-II/actin ratio) (AGS cells [1]; 20 μM for 3 hrs after 3 to 4 hrs VacA+ CCMS, AGS cell lysates, FIG. 4A) | accumulation of dysfunctional autophagosomes (LC3 puncta) (AGS cells [1]; 20 μM for 3 hrs after VacA+ CCMS, AGS cells, staining, FIG. 4B) | cathepsin D sorting to lysosomes (AGS cells [3]) | cathepsin D cellular levels (cathepsin D/actin ratio) (AGS cells [4]) | lysosomal degradative function (degradation of DQ-BSA) (AGS cells [5]) | intracellular survival of wild-type (VacA+) H. pylori (CFU) ([6]; 8 hrs infection, 20 μM for the last 3 hrs) | intracellular survival of wild-type (VacA+) H. pylori (CFU) ([6]; 24 hrs infection, 20 μM for the last 4 hrs) | size of the vacuoles in VacA+ H. pylori infected cells (AGS cells [7]; Lamp1 staining) | cathepsin D in the vacuoles of VacA+ H. pylori infected cells (AGS cells [7]; cathepsin D staining) | VacA-induced large intracellular vacuoles (Lamp1) (human gastric organoids; then 3 h compound, human gastric organoid monolayers) | disrupted autophagy (LC3) (human gastric organoids; then 5 h (3-dimensional organoids, LC3-II blot) or 3 h (monolayers) compound)
1 | Cc1ccc(S(=O)(=O)Nc2ccccc2N2CCCCC2)s1 [MK6-83] | restored the VacA-disrupted autophagy | – | – | – | – | – | – | – | – | – | – | – | – | –
2 | CC1CC(C)(C)N(C(=O)CN2C(=O)c3ccccc3C2=O)c2ccccc21 (centres unmarked) [ML-SA1] | – | reversed the vacuolation | restored the VacA-disrupted autophagy | autophagy was restored | reversed the accumulation of dysfunctional autophagosomes | restores cathepsin D sorting to lysosomes | restored cathepsin D levels | restores the degradative capacity | reverted the enhanced intracellular survival | reverted the enhanced intracellular survival | causes a reduction in the size of the vacuoles | now contain the lysosomal hydrolase cathepsin D | large vacuoles were reverted | autophagy was restored
